Results taken from patent publication US20220340542A1, “SALTS OF OMECAMTIV MECARBIL AND SOLID FORMS THEREOF” (SYNTHON B.V., priority 2019, published 2022).
Structures can show the parent of a compound that is named as a salt.

Experiments:
[1] = Solid form stability when kept at elevated temperature and relative humidity; type: physicochemical; conditions: 70% to 100% relative humidity, between 20 and 40 days
Description: The Form II can be characterized by XRPD pattern having 2θ values 5.0°, 9.3° and 16.5° degrees 2 theta (f 0.2 degrees 2 theta). The solid Form II can be also characterized by XRPD pattern having 2θ values 5.0°, 9.3°, 16.5°, 18.6° and 24.6° degrees 2 theta (±0.2 degrees 2 theta). The solid form can be further characterized by XRPD pattern described in the following table:
The Form III can be characterized by XRPD pattern having […] 14.3°, 19.3° and 25.8° degrees 2 theta (±0.2 degrees 2 theta). The solid […] can be also characterized by XRPD pattern having 2θ values 5.4°, 7.5°, 14.3°, 19.3° and 25.8° degrees 2 theta (±0.2 degrees 2 theta). The solid form can be further characterized by XRPD pattern described in the following table: […]

[2] = Solubility of Omecamtiv mecarbil salts in water solution (aqueous buffer) at different pH; type: physicochemical; conditions: for Category of solubility (Descriptive Term): USP / Ph. Eur. descriptive terms; for Solubility in comparison with Omecamtiv mecarbil dihydrochloride monohydrate salt: water solution at pH 1.2, 4.5 and 6.8
Description: The solubility of prepared salts was tested in water solution at different pH (1.2, 4.5 and 6.8) and compared to Omecamtiv mecarbil dihydrochloride monohydrate salt prepared according to a procedure disclosed in WO2006009726 application. It can be concluded that solubilities of Omecamtiv mecarbil maleic acid salt, Form A, Omecamtiv mecarbil fumaric acid (1:1), Form I, Omecamtiv mecarbil malonic acid (1:1), Form I, Omecamtiv mecarbil adipic acid (1:1.5), Form I, Omecamtiv mecarbil sulfuric acid (1:1), Forms I, II and III salts are lower in comparison with Omecamtiv mecarbil dihydrochloride monohydrate salt.

| SMILES | Category of solubility (Descriptive Term) ([2]; aqueous buffer pH 1.2) | Category of solubility (Descriptive Term) ([2]; aqueous buffer pH 4.5) | Category of solubility (Descriptive Term) ([2]; aqueous buffer pH 6.8) | Solubility in comparison with Omecamtiv mecarbil dihydrochloride monohydrate salt ([2]; Form I) | Solubility in comparison with Omecamtiv mecarbil dihydrochloride monohydrate salt ([2]; Form A) | Solubility in comparison with Omecamtiv mecarbil dihydrochloride monohydrate salt ([2]; listed as Omecamtiv mecarbil sulfuric acid (1:1), Forms I, II and III) | Solid form transformation on storage ([1]; temperature between 40° C. and 80° C.) | Solid form transformation on storage ([1]; temperature between 40° C. and 70° C.) |
| --- | --- | --- | --- | --- | --- | --- | --- | --- |
| COC(=O)N1CCN(Cc2cccc(NC(=O)Nc3ccc(C)nc3)c2F)CC1 [Omecamtiv mecarbil sulfuric acid salt] | – | – | – | – | – | – | transformed to Omecamtiv mecarbil sulfuric acid salt, Form III | – |
| COC(=O)N1CCN(Cc2cccc(NC(=O)Nc3ccc(C)nc3)c2F)CC1 [Salt with HC1, Omecamtiv mecarbil dihydrochloride monohydrate salt, reference compound] | Freely soluble ((100-1000 mg/mL)) | Freely soluble ((100-1000 mg/mL)) | Freely soluble ((100-1000 mg/mL)) | – | – | – | – | – |
| COC(=O)N1CCN(Cc2cccc(NC(=O)Nc3ccc(C)nc3)c2F)CC1 [Salt with adipic acid (1:1.5), Form I, Omecamtiv mecarbil adipic acid (1:1.5) salt] | Sparingly soluble ((10-33 mg/mL)) | Sparingly soluble ((10-33 mg/mL)) | Very slightly soluble ((0.1-1 mg/mL)) | lower | – | – | – | – |
| COC(=O)N1CCN(Cc2cccc(NC(=O)Nc3ccc(C)nc3)c2F)CC1 [Salt with fumaric acid (1:1), Form I, Omecamtiv mecarbil fumaric acid (1:1) salt] | Very slightly soluble ((0.1-1 mg/mL)) | Sparingly soluble ((10-33 mg/mL)) | Sparingly soluble ((10-33 mg/mL)) | lower | – | – | – | transformed to Omecamtiv mecarbil fumaric acid (1:1), Form II |

Now from value to compound, other results behind:

| Category of solubility (Descriptive Term) ([2]; aqueous buffer pH 1.2) | Category of solubility (Descriptive Term) ([2]; aqueous buffer pH 4.5) | Category of solubility (Descriptive Term) ([2]; aqueous buffer pH 6.8) | Solubility in comparison with Omecamtiv mecarbil dihydrochloride monohydrate salt ([2]; Form I) | Solubility in comparison with Omecamtiv mecarbil dihydrochloride monohydrate salt ([2]; Form A) | Solubility in comparison with Omecamtiv mecarbil dihydrochloride monohydrate salt ([2]; listed as Omecamtiv mecarbil sulfuric acid (1:1), Forms I, II and III) | SMILES | Solid form transformation on storage ([1]; temperature between 40° C. and 80° C.) | Solid form transformation on storage ([1]; temperature between 40° C. and 70° C.) |
| --- | --- | --- | --- | --- | --- | --- | --- | --- |
| Freely soluble ((100-1000 mg/mL)) | Freely soluble ((100-1000 mg/mL)) | Freely soluble ((100-1000 mg/mL)) | comparable | – | – | COC(=O)N1CCN(Cc2cccc(NC(=O)Nc3ccc(C)nc3)c2F)CC1 [Salt with fumaric acid (1:2), Form I, Omecamtiv mecarbil fumaric acid (1:2) salt] | – | – |
| Sparingly soluble ((10-33 mg/mL)) | Sparingly soluble ((10-33 mg/mL)) | Very slightly soluble ((0.1-1 mg/mL)) | – | lower | – | COC(=O)N1CCN(Cc2cccc(NC(=O)Nc3ccc(C)nc3)c2F)CC1 [Salt with maleic acid, Form A, Omecamtiv mecarbil maleic acid salt] | – | – |
| Sparingly soluble ((10-33 mg/mL)) | Sparingly soluble ((10-33 mg/mL)) | Very slightly soluble ((0.1-1 mg/mL)) | lower | – | – | COC(=O)N1CCN(Cc2cccc(NC(=O)Nc3ccc(C)nc3)c2F)CC1 [Salt with malonic acid (1:1), Form I, Omecamtiv mecarbil malonic acid (1:1) salt] | – | – |
| Sparingly soluble ((10-33 mg/mL)) | Sparingly soluble ((10-33 mg/mL)) | Sparingly soluble ((10-33 mg/mL)) | – | – | lower | COC(=O)N1CCN(Cc2cccc(NC(=O)Nc3ccc(C)nc3)c2F)CC1 [Salt with sulfuric acid (1:1), Forms I, II and III] [Omecamtiv mecarbil sulfuric acid salt] | – | – |
